Measured values: patent publication US20210338626A1, “METHODS FOR TREATING OR PREVENTING A VIRAL INFECTION OR INHIBITING VIRAL REPLICATION” (Dalcor Pharma UK Ltd., Leatherhead, Zug Branch, priority 2020, published 2021)
Where two headings read alike, the source gives them in different places.

Key:
SARS-CoV-2 = SARS-CoV-2 plaque formation in Vero E6 cells; assay type: cell-based; details: Severe acute respiratory syndrome coronavirus 2, Vero C1008, pre-incubated one hour before addition of virus, read-out: IC50, SARS-CoV-2 plaque formation / viral replication
[1] = set-up: species or system rats; details: rat, in vivo
Source text: (§1) In rats, the percentages of an administered oral dose excreted into the feces as dalcetrapib-ester and dalcetrapib thiol plus dalcetrapib thiol dimer are 41.1% and 17.8%, respectively. The corresponding values following oral administration in monkeys are 11.6% and 22.2%.

[2] = set-up: species or system monkeys; details: monkey, in vivo
Source text: as §1

[3] = set-up: species or system rodents; details: in vivo, po
Source text: as §1

[4] = target: T1, cholesteryl ester transfer protein (Homo sapiens, UniProt P11597); details: cited from earlier work
T1 sequence (P11597 18-493): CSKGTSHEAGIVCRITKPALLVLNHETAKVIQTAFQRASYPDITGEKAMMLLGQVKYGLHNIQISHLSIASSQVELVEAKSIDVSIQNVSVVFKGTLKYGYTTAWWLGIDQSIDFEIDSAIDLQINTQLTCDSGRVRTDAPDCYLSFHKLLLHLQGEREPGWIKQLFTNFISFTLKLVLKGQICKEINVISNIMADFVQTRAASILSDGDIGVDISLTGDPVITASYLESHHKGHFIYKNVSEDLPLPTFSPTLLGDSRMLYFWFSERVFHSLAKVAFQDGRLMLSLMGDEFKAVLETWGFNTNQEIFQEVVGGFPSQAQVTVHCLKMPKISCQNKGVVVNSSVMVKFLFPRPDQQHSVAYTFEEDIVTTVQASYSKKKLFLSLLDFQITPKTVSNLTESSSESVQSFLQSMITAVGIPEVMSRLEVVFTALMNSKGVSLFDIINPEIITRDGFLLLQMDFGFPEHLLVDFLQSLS

[5] = in vivo; cited from earlier work

Structure (SMILES) | IC50 (SARS-CoV-2) [µM] | percentage of administered oral dose excreted into the feces as dalcetrapib thiol plus dalcetrapib thiol dimer [1] [%] | percentage of administered oral dose excreted into the feces as dalcetrapib-ester [1] [%] | percentage of administered oral dose excreted into the feces as dalcetrapib thiol plus dalcetrapib thiol dimer [2] [%] | percentage of administered oral dose excreted into the feces as dalcetrapib-ester [2] [%] | tissue distribution [3] | IC50 ([4]; pre-incubation 1 hour) [µM] | IC50 ([4]; pre-incubation 24 hours) [µM] | safety issues from formation of covalent protein adducts [5]
CCC(CC)CC1(C(=O)Nc2ccccc2S)CCCCC1 [Dalcetrapib thiol] | ~17.8 | – | – | – | – | – | – | – | –
CCC(CC)CC1(C(=O)Nc2ccccc2SC(=O)C(C)C)CCCCC1 [Dalcetrapib] | 17.8 | 17.8 | 41.1 | 22.2 | 11.6 | distributes in all tissues including the lungs and gastrointestinal tract | 1.18 | 0.045 | has not been observed
